Patent US20050130232A1, “Methods of screening for compounds that modulate hormone receptor activity” (Allergan, Inc., priority 2001, published 2005)

Tests used:
Assay type in all cases: cell-based
[1] = system: MAP kinase (MAPK or ERK1/2); test: MAP kinase phosphorylation in cells treated with RXR agonist (anti-phospho-MAPK immunoblot)
Method: Cells were lysed directly with 1×SDS sample buffer and the cell lysates were separated by SDS-PAGE and immunoblotted with anti-phospho-MAPK. […] Differentiated 3T3 adipocytes were starved, stimulated, and manipulated as described above. […] Detection of MAP kinase phosphorylation was performed as described above with anti-phospho-MAPK from Promega.
MAP kinase (MAPK or ERK1/2) is activated by phosphorylation on Thr and Tyr residues of a TEY motif by the dual-specific MAP kinase kinase (MEK). […] As further shown in FIG. 3C, the response was dose-dependent (0.01-100 nM), with maximal stimulation at 0.1 nM.

[2] = system: protein kinase A activity associated with RXRα (Homo sapiens); test: PKA activity in S293 cells overexpressing the catalytic subunit of PKA
From the text: Sample 1: No ligand; immunoprecipitation with beads only. […] Sample 3: No ligand; immunoprecipitation with anti-FLAG antibody. […] Sample 5: No ligand; immunoprecipitation with beads only. […] Sample 7: No ligand; immunoprecipitation with anti-PKA antibody.
S293 cells (HEK293 cells stably overexpressing RXRα) were transfected with the pFC-PKA expression vector encoding the catalytic subunit of protein kinase A and with Flag-tagged PH-RXRα essentially as described above. This commercially available expression vector expresses the catalytic subunit of murine protein kinase A under control of the CMV promoter (Stratagene; San Diego, Calif.).

[3] = target: T1, protein kinase A activity associated with RXRα (Homo sapiens, UniProt P19793); test: Protein kinase A activity in anti-Flag immunoprecipitates of PH-RXRα or RXRα transfected HEK 293 cells, synthetic peptide substrate; conditions: Flag-RXRα lacking pleckstrin homology domain, 10^-7 M, substrate LRRASLG, vs control vehicle
T1 sequence (P19793 1-462): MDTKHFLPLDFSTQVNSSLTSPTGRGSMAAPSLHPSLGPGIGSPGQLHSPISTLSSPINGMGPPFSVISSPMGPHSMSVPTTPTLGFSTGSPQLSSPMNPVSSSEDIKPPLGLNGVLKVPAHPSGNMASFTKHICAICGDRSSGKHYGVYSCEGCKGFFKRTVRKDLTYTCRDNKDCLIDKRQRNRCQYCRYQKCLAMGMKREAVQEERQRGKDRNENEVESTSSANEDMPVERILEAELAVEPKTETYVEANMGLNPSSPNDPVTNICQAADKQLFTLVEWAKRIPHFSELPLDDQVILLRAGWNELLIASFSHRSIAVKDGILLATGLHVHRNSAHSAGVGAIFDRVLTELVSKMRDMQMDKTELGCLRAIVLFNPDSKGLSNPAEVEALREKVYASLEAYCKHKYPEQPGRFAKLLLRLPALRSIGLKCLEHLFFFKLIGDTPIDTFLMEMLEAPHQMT
Method: 293 cells were transfected with PH-RXRα. Sample 1: 0.1% DMSO (10 minutes). […] Sample 3: 0.1% DMSO (30 minutes).
Sample 1: 0.1% DMSO (10 minutes). […] Sample 3: 0.1% DMSO (30 minutes). […] Sample 5: No immunoprecipitate.
Sample 1: 0.1% DMSO. […] Sample 3: 0.1% DMSO with PKA inhibitor. […] Sample 5: 0.1% DMSO.
Following immunoprecipitation with anti-Flag antibody, the synthetic PKA substrate, LRRASLG (SEQ ID NO: 59), was added to the immunoprecipitate along with γ-ATP.
HEK 293 were cultured and transfected essentially as described above. Immunoprecipitates were prepared using the anti-Flag antibody, M2, as described above. Assays for protein kinase A activity were performed as follows. Immunoprecipitated complexes were resuspended in 40 μl of Kinase Assay Buffer (30 mM Tris-HCl, pH 7.4 and 10 mM MgCl2). Kinase reactions were initiated by addition of 10 μl of 500 μM synthetic peptide LRRASLG (SEQ ID NO: 59) or […] (SEQ ID NO: 60) prepared by Upstate Biotechnology (Lake Placid, N.Y.) and addition of 50 μM [γ-^32P]ATP (10 μCi) to the immune-complexes. […]
Incorporated ^32P was separated from free label by applying the reaction mixture onto P81 phosphocellulose paper and subsequently washing the paper three times with 0.75% phosphoric acid and once with acetone. Protein kinase reaction samples were analyzed in a scintillation counter to determine the amount of ^32P-incorporation.

CC(/C=C/[C@@H]1C[C@]1(C)c1ccc2c(c1)C(C)(C)CCC2(C)C)=C\C(=O)O [AGN194204]
duration of increased MAP kinase phosphorylation [1]: about 20 minutes | phosphorylation of MAP kinase ([1]; 3T3-L1 fibroblasts): increased phosphorylation of MAP kinase | concentration of maximal stimulation of MAP kinase phosphorylation ([1]; 3T3-L1 fibroblasts, 5 minutes): 0.1 nM | dose-dependent range of MAP kinase response ([1]; 3T3-L1 fibroblasts, 5 minutes): 10 to 100000 pM | time to increased MAP kinase phosphorylation ([1]; after treatment): ≤ 5 min | phosphorylation of MAP kinase ([1]; differentiated 3T3 adipocytes): increased phosphorylation of MAP kinase | protein kinase A activity in immunoprecipitates ([2]; immunoprecipitation with anti-Flag antibody): dramatic increase | protein kinase A activity in immunoprecipitates ([2]; immunoprecipitation with anti-PKA antibody): only a marginal ligand-dependent increase | protein kinase A activity associated with RXRα [3]: significantly enhanced
